System: BR5270 transgenic Caenorhabditis elegans strain
Assay: Survival (lifespan) in the preclinical Tau C. elegans model
Format: in vivo
Details: for Survival of C. elegans: 40 μM; for % Alive: BR5270, 40 μM
Description: Many neurodegenerative diseases and conditions associated with neuronal insult are characterized by intracellular aggregates of the microtubule associated protein Tau. […] Due to the significant impact on lifespan and locomotion defect produced by this model, time/cost-effective and high throughput acquisition of data, the C. elegans model of tauopathy serves as an advantageous screening tool for the discovery of novel modulators of neurodegeneration.
Cannabinoid botanical drug substances (20 μM, 40 μM, 80 μM) were prepared in accordance with the protocol described in Example 1 above. The exemplary cannabinoid botanical drug substance used in the study of this example includes CBD, CBG and THC present as the major components in a ratio of 50:20:1.
The effect of the two different complex botanical mixtures described above were compared to the comparative control, cannabidiol (40 μM) and a no treatment negative control in the BR5270 transgenic strain. Additional no-treatment negative control and healthspan extension positive control (cannabidiol 40 μM) in wild-type arms served as added comparators. All examinations were performed in triplicate. The impact of three doses of each compound on animal survival and activity levels were examined on days 4, 8, 12, and 16 of animal life. These time points represent the first day of adulthood, early-, mid-, and late-life periods in the C. elegans lifespan.

## C=C(C)[C@@H]1CCC(C)=C[C@H]1c1c(O)cc(CCCCC)cc1O [CBD, cannabidiol]
Day 12 (Table 1b summary)
  Survival of C. elegans: 39
Day 16 (Table 1b summary)
  Survival of C. elegans: 10
Day 4 of animal life
  % Alive: 100%
Day 8 of animal life
  % Alive: 73.17%
Day 12 of animal life
  % Alive: 39.39%
Day 16 of animal life
  % Alive: 9.738%

Reference: patent US20260216218A1, “CANNABINOID COMPOSITIONS, AND USES THEREOF IN TREATMENT OF NEURODEGENERATIVE DISEASES OR DISORDERS AND CANCERS” (Biopharmaceutical Research Company, priority 2023, published 2026)
